Paper PMC8369832, “Purification and Characterization of a Thermo- and pH-Stable Laccase From the Litter-Decomposing Fungus Gymnopus luxurians and Laccase Mediator Systems for Dye Decolorization” (Frontiers in Microbiology, 2021)

Tested on: T1, GLL (purified laccase from Gymnopus luxurians)
T1 construct: native extracellular enzyme purified from fermentation broth; monomer, 64 kDa (SDS-PAGE and gel filtration); N-terminus AIGPVTDLHI; gene not cloned; N-terminus very unlike hypothetical G. luxurians laccases KIK69235.1, KIK58304.1, KIK56882.1
Test: spectrophotometric oxidation at […] nm, Lineweaver-Burk plot
Assay type: biochemical, Collybiopsis luxurians
Conditions: pH 2.2 (50 mM citric acid-Na2HPO4), 37 °C; ABTS 12.5-800 μM; free enzyme

CCn1c(=NN=c2sc3cc(S(=O)(=O)O)ccc3n2CC)sc2cc(S(=O)(=O)O)ccc21 [ABTS, 2,2′-azino-bis(3-ethylbenzothiazoline-6-sulfonic acid)]
Km: 539 µM
